Values after ≈ are worked out from the molar mass of the structure shown.
Experiments:
HCT-116 [1] = test: Growth inhibition of human HCT116 cells after 72 hrs by MTT assay; format: functional; conditions: HCT-116, 72 h
[2] = Metabolic stability in CD1 mouse liver microsomes assessed as compound remaining at 10 uM after 30 mins by LC-MS/MS analysis; format: ADME, Microsome; conditions: read-out: Stability
Aurora kinase A = target: T1, Aurora kinase A (Homo sapiens, UniProt O14965)
T1 sequence (O14965 whole entry): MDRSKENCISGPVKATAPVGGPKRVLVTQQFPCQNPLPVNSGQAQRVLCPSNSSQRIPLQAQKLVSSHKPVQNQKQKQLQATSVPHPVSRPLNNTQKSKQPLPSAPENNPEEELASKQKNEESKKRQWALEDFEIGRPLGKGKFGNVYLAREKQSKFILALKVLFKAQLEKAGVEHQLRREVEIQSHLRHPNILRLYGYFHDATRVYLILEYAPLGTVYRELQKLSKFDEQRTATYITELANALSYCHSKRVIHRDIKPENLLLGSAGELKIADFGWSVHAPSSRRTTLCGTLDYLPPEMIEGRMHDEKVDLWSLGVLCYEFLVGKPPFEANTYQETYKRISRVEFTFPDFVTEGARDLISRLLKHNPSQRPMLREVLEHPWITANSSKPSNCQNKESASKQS
Description: Inhibition of human recombinant Aurora A expressed in baculovirus system

HCT-116 [3] = test: Growth inhibition of human HCT116 cells at 10 uM after 72 hrs by MTT assay; format: functional; conditions: HCT-116, 72 h, read-out: GI
[4] = target: T2, Aurora kinase A (Homo sapiens) (UniProt O14965); test: Inhibition of Aurora A at 1 uM
T2 sequence (whole entry): T1 sequence (O14965 whole entry)

[5] = target: Angiopoietin-1 receptor (Homo sapiens) (UniProt Q02763); test: Inhibition of TEK at 1 uM
Chain of Angiopoietin-1 receptor (Homo sapiens) (Q02763 whole entry): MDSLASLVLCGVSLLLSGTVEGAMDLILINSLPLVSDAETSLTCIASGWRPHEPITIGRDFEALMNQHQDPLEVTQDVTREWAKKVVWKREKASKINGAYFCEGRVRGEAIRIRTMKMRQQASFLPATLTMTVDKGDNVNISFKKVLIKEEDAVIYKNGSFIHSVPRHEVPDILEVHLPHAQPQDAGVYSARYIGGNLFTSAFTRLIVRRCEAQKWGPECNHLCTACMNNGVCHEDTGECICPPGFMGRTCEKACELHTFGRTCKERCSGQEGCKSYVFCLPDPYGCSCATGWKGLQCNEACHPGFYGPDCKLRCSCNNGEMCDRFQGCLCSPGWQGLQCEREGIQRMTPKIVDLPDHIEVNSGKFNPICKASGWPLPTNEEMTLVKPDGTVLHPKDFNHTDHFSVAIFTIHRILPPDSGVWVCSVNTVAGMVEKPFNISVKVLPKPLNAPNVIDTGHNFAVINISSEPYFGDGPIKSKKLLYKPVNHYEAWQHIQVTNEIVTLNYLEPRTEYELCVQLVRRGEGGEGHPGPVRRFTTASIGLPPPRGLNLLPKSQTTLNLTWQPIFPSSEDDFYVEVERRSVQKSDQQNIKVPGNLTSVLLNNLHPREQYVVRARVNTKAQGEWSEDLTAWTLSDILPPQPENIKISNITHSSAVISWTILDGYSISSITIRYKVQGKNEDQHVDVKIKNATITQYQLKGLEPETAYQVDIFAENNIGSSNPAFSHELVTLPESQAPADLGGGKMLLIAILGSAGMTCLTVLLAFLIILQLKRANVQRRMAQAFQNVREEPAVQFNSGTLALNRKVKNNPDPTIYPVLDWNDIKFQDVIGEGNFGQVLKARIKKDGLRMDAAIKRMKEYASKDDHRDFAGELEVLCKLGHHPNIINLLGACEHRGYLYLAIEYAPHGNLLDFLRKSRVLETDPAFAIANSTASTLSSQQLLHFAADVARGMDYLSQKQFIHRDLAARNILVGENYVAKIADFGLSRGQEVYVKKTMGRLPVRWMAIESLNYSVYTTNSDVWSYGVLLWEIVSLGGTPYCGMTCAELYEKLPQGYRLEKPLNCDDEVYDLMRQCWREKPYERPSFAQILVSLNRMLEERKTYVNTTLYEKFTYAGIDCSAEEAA

hERG (KCNH2) = hERG (KCNH2) (Homo sapiens, UniProt Q12809); test: (§1) Inhibition of human ERG at 10 uM
Chain of hERG (KCNH2) (Q12809 whole entry): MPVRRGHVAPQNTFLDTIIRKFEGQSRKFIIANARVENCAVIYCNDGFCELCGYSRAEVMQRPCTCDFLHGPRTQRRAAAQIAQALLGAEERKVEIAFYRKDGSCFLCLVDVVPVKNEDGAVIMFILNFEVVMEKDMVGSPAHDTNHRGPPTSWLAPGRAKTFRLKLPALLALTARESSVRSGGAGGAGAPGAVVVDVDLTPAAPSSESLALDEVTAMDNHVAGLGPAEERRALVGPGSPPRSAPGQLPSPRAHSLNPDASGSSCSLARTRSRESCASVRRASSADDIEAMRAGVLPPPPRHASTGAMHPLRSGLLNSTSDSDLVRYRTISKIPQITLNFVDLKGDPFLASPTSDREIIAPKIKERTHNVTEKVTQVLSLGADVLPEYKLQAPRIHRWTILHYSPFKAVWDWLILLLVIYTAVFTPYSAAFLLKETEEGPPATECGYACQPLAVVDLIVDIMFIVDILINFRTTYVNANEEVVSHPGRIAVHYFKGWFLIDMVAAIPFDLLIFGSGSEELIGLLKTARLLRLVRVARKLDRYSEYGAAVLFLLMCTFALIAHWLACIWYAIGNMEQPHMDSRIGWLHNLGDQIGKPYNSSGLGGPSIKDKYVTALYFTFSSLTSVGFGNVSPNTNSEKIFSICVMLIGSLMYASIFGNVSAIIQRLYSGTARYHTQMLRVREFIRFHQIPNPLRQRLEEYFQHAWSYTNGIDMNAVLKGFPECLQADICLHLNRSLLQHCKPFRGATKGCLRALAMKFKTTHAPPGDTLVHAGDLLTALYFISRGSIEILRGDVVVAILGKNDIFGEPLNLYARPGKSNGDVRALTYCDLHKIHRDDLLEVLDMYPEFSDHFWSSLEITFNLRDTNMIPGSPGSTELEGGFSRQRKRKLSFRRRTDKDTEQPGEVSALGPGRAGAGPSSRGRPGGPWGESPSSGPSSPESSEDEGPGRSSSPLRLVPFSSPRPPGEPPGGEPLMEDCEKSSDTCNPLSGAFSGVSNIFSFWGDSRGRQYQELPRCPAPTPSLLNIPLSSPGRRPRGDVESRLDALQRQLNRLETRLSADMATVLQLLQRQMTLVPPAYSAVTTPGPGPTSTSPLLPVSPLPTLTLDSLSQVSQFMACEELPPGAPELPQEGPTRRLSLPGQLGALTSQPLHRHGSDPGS

[6] = target: Aurora kinase B (Homo sapiens) (UniProt Q96GD4); test: Inhibition of Aurora B at 1 uM
Chain of Aurora kinase B (Homo sapiens) (Q96GD4 whole entry): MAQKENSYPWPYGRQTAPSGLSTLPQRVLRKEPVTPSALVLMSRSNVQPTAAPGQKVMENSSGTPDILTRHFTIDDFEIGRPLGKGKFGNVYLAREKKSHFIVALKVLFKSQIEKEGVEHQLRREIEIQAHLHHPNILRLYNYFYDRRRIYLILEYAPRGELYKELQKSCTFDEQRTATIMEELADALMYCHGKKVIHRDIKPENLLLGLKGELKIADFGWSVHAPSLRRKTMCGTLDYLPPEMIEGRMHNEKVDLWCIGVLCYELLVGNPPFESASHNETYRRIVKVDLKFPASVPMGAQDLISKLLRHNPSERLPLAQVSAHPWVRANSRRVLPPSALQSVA

[7] = target: T3, Ephrin type-B receptor 4 (Homo sapiens) (UniProt P54760); test: Inhibition of EPHB4 at 1 uM
T3 sequence (whole entry): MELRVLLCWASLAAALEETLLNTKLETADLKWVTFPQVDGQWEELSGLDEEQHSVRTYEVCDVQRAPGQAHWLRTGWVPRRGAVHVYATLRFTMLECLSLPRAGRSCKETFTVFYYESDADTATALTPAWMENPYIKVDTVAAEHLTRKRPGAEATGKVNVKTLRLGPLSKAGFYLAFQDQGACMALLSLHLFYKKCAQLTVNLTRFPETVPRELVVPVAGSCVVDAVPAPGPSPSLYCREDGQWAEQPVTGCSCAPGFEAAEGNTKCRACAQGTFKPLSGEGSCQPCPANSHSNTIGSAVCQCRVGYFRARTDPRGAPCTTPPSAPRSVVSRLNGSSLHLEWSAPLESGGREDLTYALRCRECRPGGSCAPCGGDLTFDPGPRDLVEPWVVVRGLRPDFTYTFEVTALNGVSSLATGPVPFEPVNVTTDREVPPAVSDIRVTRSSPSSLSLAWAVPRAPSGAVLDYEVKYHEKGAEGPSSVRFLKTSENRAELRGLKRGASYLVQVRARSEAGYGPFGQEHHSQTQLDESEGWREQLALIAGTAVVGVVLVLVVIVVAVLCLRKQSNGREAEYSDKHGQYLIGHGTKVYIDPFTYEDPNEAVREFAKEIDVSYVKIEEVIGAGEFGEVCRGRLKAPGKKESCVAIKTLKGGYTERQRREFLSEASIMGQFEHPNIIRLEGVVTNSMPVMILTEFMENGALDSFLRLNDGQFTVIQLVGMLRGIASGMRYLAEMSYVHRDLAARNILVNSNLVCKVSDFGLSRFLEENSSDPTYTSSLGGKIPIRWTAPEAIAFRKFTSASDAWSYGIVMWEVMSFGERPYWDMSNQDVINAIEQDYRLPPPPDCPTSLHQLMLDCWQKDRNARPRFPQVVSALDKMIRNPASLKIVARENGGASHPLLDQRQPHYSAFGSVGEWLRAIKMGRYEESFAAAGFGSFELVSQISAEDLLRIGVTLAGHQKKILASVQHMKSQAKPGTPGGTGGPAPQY

[8] = target: Vascular endothelial growth factor receptor 1 (Homo sapiens) (UniProt P17948); test: Inhibition of FLT1 at 1 uM
[9] = target: Vascular endothelial growth factor receptor 2 (Homo sapiens) (UniProt P35968); test: Inhibition of KDR at 1 uM
[10] = target: Tyrosine-protein kinase Lck (Homo sapiens) (UniProt P06239); test: Inhibition of LCK at 1 uM
Chain of Tyrosine-protein kinase Lck (Homo sapiens) (P06239 2-509 limits assumed): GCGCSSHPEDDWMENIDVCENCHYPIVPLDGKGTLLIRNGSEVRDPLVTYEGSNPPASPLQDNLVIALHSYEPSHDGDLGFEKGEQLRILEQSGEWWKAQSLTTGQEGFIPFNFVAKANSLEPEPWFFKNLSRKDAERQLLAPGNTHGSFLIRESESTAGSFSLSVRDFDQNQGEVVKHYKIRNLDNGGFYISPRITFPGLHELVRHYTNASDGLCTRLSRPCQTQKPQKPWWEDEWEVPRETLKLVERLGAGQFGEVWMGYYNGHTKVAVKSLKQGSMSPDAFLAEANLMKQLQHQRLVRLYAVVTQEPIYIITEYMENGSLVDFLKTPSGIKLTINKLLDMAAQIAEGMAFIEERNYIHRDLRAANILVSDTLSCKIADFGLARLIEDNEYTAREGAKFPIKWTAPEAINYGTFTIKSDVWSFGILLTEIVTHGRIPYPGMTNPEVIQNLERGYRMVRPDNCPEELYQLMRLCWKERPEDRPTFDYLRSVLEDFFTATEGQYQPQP

[11] = target: Hepatocyte growth factor receptor (Homo sapiens) (UniProt P08581); test: Inhibition of MET at 1 uM
[12] = target: High affinity nerve growth factor receptor (Homo sapiens) (UniProt P04629); test: Inhibition of NTRK1 at 1 uM
Chain of High affinity nerve growth factor receptor (Homo sapiens) (P04629 33-796 limits assumed): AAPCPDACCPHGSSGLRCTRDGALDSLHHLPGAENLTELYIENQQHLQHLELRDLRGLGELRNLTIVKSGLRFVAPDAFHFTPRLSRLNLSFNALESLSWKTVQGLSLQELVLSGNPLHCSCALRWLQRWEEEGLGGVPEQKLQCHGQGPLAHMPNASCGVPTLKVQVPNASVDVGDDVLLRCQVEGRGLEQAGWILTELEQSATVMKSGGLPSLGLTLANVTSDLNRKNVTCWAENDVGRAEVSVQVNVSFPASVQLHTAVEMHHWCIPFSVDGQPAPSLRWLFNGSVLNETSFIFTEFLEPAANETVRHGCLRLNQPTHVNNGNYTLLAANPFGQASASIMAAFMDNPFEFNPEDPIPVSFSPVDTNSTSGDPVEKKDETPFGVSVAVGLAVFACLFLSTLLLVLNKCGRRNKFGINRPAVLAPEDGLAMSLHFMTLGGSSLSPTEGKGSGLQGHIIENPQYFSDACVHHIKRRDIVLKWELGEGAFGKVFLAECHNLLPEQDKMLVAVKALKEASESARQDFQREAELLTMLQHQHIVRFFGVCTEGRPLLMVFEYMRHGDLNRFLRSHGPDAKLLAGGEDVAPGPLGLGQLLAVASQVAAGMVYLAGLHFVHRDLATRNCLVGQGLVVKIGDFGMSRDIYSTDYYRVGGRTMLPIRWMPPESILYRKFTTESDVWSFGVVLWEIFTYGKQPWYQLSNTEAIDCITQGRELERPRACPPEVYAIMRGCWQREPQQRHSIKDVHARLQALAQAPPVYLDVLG

[13] = target: Platelet-derived growth factor receptor beta (Homo sapiens) (UniProt P09619); test: Inhibition of PDGFRbeta at 1 uM
[14] = Oral bioavailability in BALB/c mouse at 5 mg/kg; format: ADME, organism-based; conditions: in vivo
[15] = Aqueous solubility of the compound; format: physicochemical; conditions: buffer
[16] = target: Voltage-gated inwardly rectifying potassium channel KCNH2 (Homo sapiens, UniProt Q12809); test: as §1; conditions: 10 µM
Chain of Voltage-gated inwardly rectifying potassium channel KCNH2 (Q12809 whole entry): as the sequence (Q12809 whole entry) above

[17] = Permeability by PAMPA assay; format: ADME; conditions: read-out: permeability

| Compound | GI50 (HCT-116 [1]) [nM] | IC50 (Aurora kinase A) [nM] | also measured |
| --- | --- | --- | --- |
| Cc1cc(CN2CCN(c3c(Cl)cnc4nc(-c5ccc(CN)cc5)[nH]c34)CC2)no1 | 650 | 55 | remaining at 0.5 h, 10 µM [2]: > 50% |
| COc1ccc(-c2nc3ncc(C4CC4)c(N4CCN(CC(=O)Nc5nccs5)CC4)c3[nH]2)cc1 | 2500 | 53 | – |
| CN(C)c1ccc(-c2nc3c(N4CCN(CC(=O)Nc5nccs5)CC4)c(Br)cnc3[nH]2)cc1 | 480 | 55 | – |
| COc1ccc(-c2nc3c(N4CCN(CC(=O)Nc5nccs5)CC4)c(Cl)cnc3[nH]2)cc1 | 900 | 52 | – |
| CN(C)c1ccc(-c2nc3c(N4CCN(Cc5ccncc5)CC4)c(Br)cnc3[nH]2)cc1 | 700 | 55 | – |
| COc1ccc(-c2nc3c(N4CCN(Cc5cncnc5)CC4)c(Br)cnc3[nH]2)cc1 | 400 | 8 | – |
| Cc1cc(CN2CCN(c3c(Cl)cnc4[nH]c(-c5ccc(Cn6cccn6)cc5)nc34)CC2)no1 | 450 | – | – |
| Brc1cnc2[nH]c(-c3ccc(CN4CCOCC4)cc3)nc2c1N1CCN(Cc2cncnc2)CC1 | 420 | 6 | – |
| COc1ccc(-c2nc3c(N4CCN(Cc5cscn5)CC4)c(Br)cnc3[nH]2)cc1 | 320 | 4 | remaining at 0.5 h, 10 µM [2]: 45% |
| CN(C)c1ccc(-c2nc3c(N4CCN(CC(=O)Nc5ccccc5)CC4)c(Cl)cnc3[nH]2)cc1 | 2550 | 115 | – |
| Brc1cnc2[nH]c(-c3ccc(CN4CCOCC4)cc3)nc2c1N1CCN(Cc2cccnc2)CC1 | 280 | – | bioavailability [14]: 13%; solubility [15]: 30 µg/mL (≈ 54.7 µM) |
| CN(C)c1ccc(-c2nc3c(N4CCN(C(=O)Nc5ccccc5)CC4)c(Br)cnc3[nH]2)cc1 | 10000 | 277 | – |
| O=C(CN1CCN(c2c(Br)cnc3[nH]c(-c4ccccc4)nc23)CC1)Nc1nccs1 | 3000 | 81 | – |
| CC(C)CN1CCN(c2c(Br)cnc3[nH]c(-c4ccc(N(C)C)cc4)nc23)CC1 | 970 | 210 | – |
| COc1ccc(-c2nc3c(N4CCN(Cc5cccnc5)CC4)c(Br)cnc3[nH]2)cc1 | 1150 | 9 | – |
| CN(C)c1ccc(-c2nc3c(N4CCN(CC(=O)Nc5cccnc5)CC4)c(Br)cnc3[nH]2)cc1 | 1650 | 118 | – |
| COc1ccc(-c2nc3c(N4CCN(Cc5cc(C)on5)CC4)c(Br)cnc3[nH]2)cc1 | 540 | 17 | inhibition (INH) [16]: Not Active; bioavailability [14]: 23%; Papp [17]: 6 ×10⁻⁶ cm/s; solubility [15]: < 10 µg/mL; remaining at 0.5 h, 10 µM [2]: > 50% |
| Cc1cc(CN2CCN(c3c(Br)cnc4[nH]c(-c5ccc(CN6CCOCC6)cc5)nc34)CC2)no1 | 60 | 2 | – |
| CN(C)c1ccc(-c2nc3c(N4CCN(CC(=O)Nc5cccc(Cl)c5)CC4)c(Cl)cnc3[nH]2)cc1 | 2670 | 75 | – |
| Cc1cc(CN2CCN(c3c(Br)cnc4nc(-c5ccc(CN6CCNCC6)cc5)[nH]c34)CC2)no1 | 78 | 10 | solubility [15]: 870 µg/mL (≈ 1580 µM); remaining at 0.5 h, 10 µM [2]: > 50% |
| O=C(CN1CCN(c2c(Cl)cnc3[nH]c(-c4ccc(CN5CCOCC5)cc4)nc23)CC1)Nc1nccs1 | 360 | 3 | – |

Now from value to molecule, other results behind:

| GI50 (HCT-116 [1]) [nM] | IC50 (Aurora kinase A) [nM] | Compound | also measured |
| --- | --- | --- | --- |
| 230 | 14 | Cc1cc(CN2CCN(c3c(Br)cnc4nc(-c5ccc(CN(C)C)cc5)[nH]c34)CC2)no1 | remaining at 0.5 h, 10 µM [2]: > 50% |
| 1030 | 50 | CN(C)c1ccc(-c2nc3c(N4CCN(CC(=O)Nc5nccs5)CC4)c(C#N)cnc3[nH]2)cc1 | – |
| – | 517 | O=C(CN1CCN(c2c(Br)cnc3[nH]cnc23)CC1)Nc1nccs1 | inhibition of growth at 10 µM (HCT-116 [3]): 40% |
| 1500 | 32 | COc1ccc(-c2nc3c(N4CCN(Cc5nccn5C)CC4)c(Br)cnc3[nH]2)cc1 | – |
| 1000 | 16 | CN(C)Cc1ccc(-c2nc3c(N4CCN(CC(=O)Nc5nccs5)CC4)c(Br)cnc3[nH]2)cc1 | – |
| 600 | – | Clc1ccc(CN2CCN(c3c(Br)cnc4[nH]c(-c5ccc(CN6CCOCC6)cc5)nc34)CC2)cc1 | inhibition [4]: 98%; inhibition [5]: 5%; inhibition at 10 µM (hERG (KCNH2)): 53%; inhibition [6]: 60%; inhibition [7]: 4%; inhibition [8]: 35%; inhibition [9]: 35%; inhibition [10]: 8%; inhibition [11]: 3%; inhibition [12]: 33%; inhibition [13]: 15% |
| 450 | 20 | Cc1cc(CN2CCN(c3c(Cl)cnc4nc(-c5ccc(OCCO)cc5)[nH]c34)CC2)no1 | remaining at 0.5 h, 10 µM [2]: > 50% |
| – | 178 | CN(C)c1ccc(-c2nc3c(N4CCN(S(=O)(=O)c5ccccc5)CC4)c(Br)cnc3[nH]2)cc1 | – |
| 240 | 10 | Cc1cc(CN2CCN(c3c(Br)cnc4[nH]c(-c5ccc(CN)cc5)nc34)CC2)no1 | remaining at 0.5 h, 10 µM [2]: > 50% |
| 950 | 365 | CN(C)c1ccc(-c2nc3c(N4CCNCC4)c(Br)cnc3[nH]2)cc1 | – |
| – | 258 | CN(C)c1ccc(-c2nc3c(N4CCN(c5ccccc5)CC4)c(Br)cnc3[nH]2)cc1 | – |
| – | 6 | Brc1cnc2[nH]c(-c3ccc(CN4CCOCC4)cc3)nc2c1N1CCN(Cc2cscn2)CC1 | – |
| 900 | 85 | CC(c1ccncc1)N1CCN(c2c(Br)cnc3[nH]c(-c4ccc(N(C)C)cc4)nc23)CC1 (stereo not given) | – |
| 830 | 650 | COc1ccc(-c2nc3c(N4CCN(CC5CC5)CC4)c(Br)cnc3[nH]2)cc1 | – |
| 900 | 79 | CC(c1ccccc1)N1CCN(c2c(Cl)cnc3[nH]c(-c4ccc(N(C)C)cc4)nc23)CC1 (stereo not given) | – |
| 100 | – | Cc1cc(CN2CCN(c3c(Br)cnc4[nH]c(-c5ccc(N6CCNCC6)cc5)nc34)CC2)no1 | remaining at 0.5 h, 10 µM [2]: > 50% |
| 280 | 30 | Cc1cc(CN2CCN(c3c(Br)cnc4[nH]c(-c5ccc(OCCO)cc5)nc34)CC2)no1 | solubility [15]: 10 µg/mL (≈ 19.5 µM); remaining at 0.5 h, 10 µM [2]: > 50% |
| 1500 | 30 | Cn1ccnc1CN1CCN(c2c(Br)cnc3[nH]c(-c4ccc(CN5CCOCC5)cc4)nc23)CC1 | – |
| 120 | – | Cc1cc(CN2CCN(c3c(Br)cnc4[nH]c(-c5ccc(Cn6cccn6)cc5)nc34)CC2)no1 | – |

From ChEMBL document CHEMBL1155446, “Imidazo[4,5-b]pyridine derivatives as inhibitors of Aurora kinases: lead optimization studies toward the identification of an orally bioavailable preclinical development candidate” (J Med Chem, 2010)
